{
  "source": "patent EP1891948A1",
  "about": "“Treatment of neurological and neuropsychological disorders” (Probiodrug AG, priority 2000, dated 2002)",
  "key": {"[1]": {"tested_on": "WistarF/Han (WF) rats", "assay": "Social interaction (SI) test of anxiety, combined i.c.v. treatment (Example 3)", "assay_type": "in vivo", "conditions": "isoleucyl thiazolidine alone 5pmol-500nmol, Fig. 7", "method": "Animals. Male WistarF/Han (WF) rats (Central Animal Laboratory, Hannover Medical School, Hannover, Germany, see http://www.mh-hannover.de/institut/tierlabor/wf.htm for details), weighing 330-370g, were housed in a sound-proof, temperature controlled (24.0±0.5°C) room under specific pathogen free conditions with a 12/12h dark/light cycle (lights on at 07.00 with illumination level of 80 Lux). Food (Altromin lab chow pellets) and tap water were available ad libitum. Under ketamine/xylasine (100/5 mg/kg, i.p.) anesthesia, the rats were fixed in a Kopf stereotaxic frame and implanted with cannulae (Plastic One, Inc., Roanoke, VA, USA) above the lateral ventricle. […]\n(§1) Animals were randomly divided into two sets of four experimental groups (n=5-6/group), which completed different consecutive SI test of anxiety. […] The time spent in active social interaction (SI-time), 1h and 12h food-intake were measured. […]\nSocial interaction (SI) test. […] Behavior was monitored using a video camera placed above the field inside the testing/isolation box. The SI behavior of both rats was recorded on-line from a monitor placed outside on top of the box. The following parameters were scored by an observer (HPN) unaware of the substrain of rats: duration of time spent in sniffing, following, crawling under and over other rats, but not passive body contact (resting, sleeping). […]"}, "[2]": {"tested_on": "WistarF/Han (WF) rats", "assay": "1h and 12h food intake after combined i.c.v. treatment (Example 3)", "assay_type": "in vivo", "conditions": "Fig. 8", "method": "Animals. Male WistarF/Han (WF) rats (Central Animal Laboratory, Hannover Medical School, Hannover, Germany, see http://www.mh-hannover.de/institut/tierlabor/wf.htm for details), weighing 330-370g, were housed in a sound-proof, temperature controlled (24.0±0.5°C) room under specific pathogen free conditions with a 12/12h dark/light cycle (lights on at 07.00 with illumination level of 80 Lux). Food (Altromin lab chow pellets) and tap water were available ad libitum. Under ketamine/xylasine (100/5 mg/kg, i.p.) anesthesia, the rats were fixed in a Kopf stereotaxic frame and implanted with cannulae (Plastic One, Inc., Roanoke, VA, USA) above the lateral ventricle. All research and animal care procedures were approved by the Lower Saxony district government (Hannover, Germany) and followed principles described in the European Community's Council Directive of 24 November 1986 (86/609/EEC).\nSurgery and i.c.v. application. For surgery, rats were anesthetized and prepared with i.c.v. cannulae (coordinates: A:-0.7mm caudal, L:1.4mm lateral to bregma; and V3.2mm ventral to the skull surface; tooth bar +3.0 above ear bars) using standard stereotaxic procedures as described in detail elsewhere (von Hörsten et al., 1998a,b,c). After a 7-day recovery period, successful ventricle cannulation was confirmed by an angiotensin drinking response (von Hörsten et al., 1998a). Rats showing a positive drinking response (n=59) were then habituated to experimental handling by daily sham injections for seven days.\nas §1\nStatistical analysis. Data from repeated observations (food intake) were analyzed by two-way analyses of variance for repeated measures (ANOVA) (factors: \"substrain\" and \"food intake\" as repeated measure). Data obtained from simple measures such as DP IV activity or SI time were analyzed by one-way (factor: \"substrain\") ANOVA. […]"}},
  "data": [
    {"molecule": "CCC(C)C(N)C(=O)N1CCSC1", "note": "(stereo not drawn) [isoleucyl thiazolidine]", "values": [
      {"measurement": "time spent in active social interaction (SI-time)", "setting": "[1]", "result": "\"bell-shaped\" dose-dependent anxiolytic-like effects"},
      {"measurement": "dose at which the 1h feeding effect reaches significance", "setting": "[2]", "result": 0.05, "unit": "nmol"},
      {"measurement": "amount of food eaten within 1h", "setting": "[2]; single agents or combination, isoleucyl thiazolidine 5pmol-500nmol, NPY 50pmol-1.6nmol", "result": "mild feeding effect"}
    ]}
  ]
}
